Each structure is given as a SMILES string.

This series is described as follows: dissolution rate of saccharide or sugar alcohol, 6-vessel dissolution tester. The class given is physicochemical. As to conditions: 2 g in desalted water 500 mL, 37° C., paddle 50 min^−1; rate constant k per surface area. Here is the method:
In the present invention, the “dissolution rate” is obtained by using a 6-vessel dissolution tester (NTR-6100, Toyama Sangyo Co., Ltd.). The paddle rotation speed was 50 min^−1, and saccharide or sugar alcohol was added by 2 g to desalted water (500 mL), which is a test solution, heated to 37° C. Samples were taken at given time intervals after addition, changes in the dry weight of the samples per unit time were calculated, and dissolution rate constant k was calculated by the Noyes-Whitney equation. The dissolution rate constant k was converted to value per surface area of each saccharide or sugar alcohol and the obtained value was taken as dissolution rate [1/min·m^2]. As the specific surface area, the value measured by a laser diffraction particle size analyzer [Mastersizer] of Malvern Instruments Ltd. was used. The tablets obtained in the Examples and Comparative Examples were measured for hardness, disintegration time in the oral cavity, disintegration time (ODT) by the following test methods. In addition, the dissolution rate of saccharide and sugar alcohol used in the Examples and Comparative Examples was measured. • (1) The hardness was measured by a tablet hardness tester (WHT-2ME, Pharma Test). The test was performed using 3 or 10 tablets, and the average value is shown. • (2) As for the disintegration time in the oral cavity, the tablet of the present invention was placed in the oral cavity of a healthy adult without water, and the time necessary for complete disintegration of the tablet with only saliva was measured. • (3) The disintegration time (ODT) was measured by an Orally Disintegrating Tablet Tester (ODT-101, Toyama Sangyo Co., Ltd.). As for the measurement conditions, a weight (15 g, weight diameter 15 mm) was used at a rotating speed of 50 rpm, and an average of 3 measures was taken. • (4) The “dissolution rate” was measured by using a 6-vessel dissolution tester (NTR-6100, Toyama Sangyo Co., Ltd.). The paddle rotation speed was 50 min^−1, and saccharide or sugar alcohol was added by 2 g to desalted water (500 mL), which is a test solution, heated to 37° C. Samples were taken at given time intervals after addition, changes in the dry weight of the samples per unit time were calculated, and dissolution rate constant k was calculated by the Noyes-Whitney equation. The dissolution rate constant k was converted to value per the surface area of each saccharide or sugar alcohol and the obtained value was taken as dissolution rate [1/min·m^2]. As the specific surface area, the value measured by a laser diffraction particle size analyzer [Mastersizer] of Malvern Instruments Ltd. was used.
As for `OC[C@@H](O)[C@@H](O)CO` [Erythritol], the dissolution rate is given as 11.99 1/min·m^2. The result for `OC[C@H]1O[C@@H](O[C@H]2[C@H](O)[C@@H](O)C(O)O[C@@H]2CO)[C@H](O)[C@@H](O)[C@H]1O` (stereo partly drawn) [Lactose] reads 5.68 1/min·m^2; that for `OC[C@H]1O[C@@](CO)(O[C@H]2O[C@H](CO)[C@@H](O)[C@H](O)[C@H]2O)[C@@H](O)[C@@H]1O` [Purification sucrose], 2.80 1/min·m^2; that for `OC[C@@H](O)[C@H](O)[C@@H](O)CO` [Xylitol], 3.57 1/min·m^2. As for `OC[C@@H](O)[C@@H](O)[C@H](O)[C@H](O)CO` [α-form mannitol], the dissolution rate was 4.62 1/min·m^2. The result for `OC[C@@H](O)[C@@H](O)[C@H](O)[C@H](O)CO` [β-form mannitol] reads 2.28 1/min·m^2.

Source of the values: patent publication US20100233278A1, “RAPIDLY DISINTEGRATING SOLID PREPARATION” (priority 2007, published 2010).
